Experimental findings from article PMC8774648, “Effects of Baicalein and Chrysin on the Structure and Functional Properties of β-Lactoglobulin” (Foods, 2022) are described below.

Experiment [1] has as its target T1, β-lactoglobulin (BLG) (Bos taurus, UniProt P02754).
T1 construct: purchased Sigma–Aldrich Co. (St. Louis, MO, USA)
T1 sequence (P02754 17-178): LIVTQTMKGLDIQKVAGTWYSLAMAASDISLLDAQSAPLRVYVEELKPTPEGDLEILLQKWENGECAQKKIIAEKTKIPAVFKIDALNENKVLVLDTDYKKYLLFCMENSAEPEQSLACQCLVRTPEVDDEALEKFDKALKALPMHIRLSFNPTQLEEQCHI
Nature of the experiment: Three-dimensional fluorescence spectra of BLG with Bai/Chr. The settings on record: c(BLG) = 20.0 µM, c(Bai/Chr) = 20.0 μM; for fluorescence intensity of Peak 2 (3D fluorescence): free BLG 430.6; for fluorescence intensity of Peak 1 (3D fluorescence): free BLG 522.1. How it is done:
Intrinsic fluorescence spectroscopic test was measured on a F–7000 spectrophotometer (Hitachi, Japan) equipped with temperature controller according to the method described in the previous study. Briefly, 3 mL solution of BLG (20.0 µM) was titrated by continuously adding different amounts of Bai or Chr (0–20.0 µM). The fluorescence spectra were recorded at different temperatures (298 K, 304 K, and 310 K) with the excitation wavelength of 280 nm and the excitation and emission slit set at 2.5 nm. Moreover, synchronous fluorescence spectra were conducted by setting the wavelength intervals (λem–λex) at 15 nm and 60 nm, respectively. The 3D fluorescence spectra (molar ratios of BLG to Bai/Chr were 1:0 and 1:1) were recorded at excitation and emission wavelength range of 200−600 nm. All the fluorescence values were corrected to eliminate the internal filtering effect according to the previous method, and were used to evaluate the quenching mechanism of Bai/Chr binding to BLG by using the following equation [21]:(1) F0/F=1+Kqτ0[Q]=1+KSV[Q] where F and F0 are the fluorescence intensities of fluorophore with and without quencher; Ksv denotes the Stern–Volmer quenching constant; Kq is the quenching rate constant (Kq = Ksv/τ0), and τ0 is the average lifetime of the biomolecule in the absence of a quencher (τ0 = 10^−8 s); [Q] represents the experimental concentration of Bai/Chr.

Experiment [2] has as its target T1, β-lactoglobulin (BLG). The experiment in a line: CD spectra, secondary structure contents of BLG. How it is done: The CD spectra in the range of 200–250 nm were obtained from a CD spectrometer (MOS 450, Bio–Logic, Claix, France) equipped with 1.0 mm path length cuvette under the constant nitrogen flush. The solutions were prepared with molar ratios of Bai or Chr to BLG of 0:1, 1:1, and 2:1, respectively. The contents of secondary structure of BLG were determined based on our previously reported study.

The target in experiment [3] is T1, β-lactoglobulin (BLG). Nature of the experiment: Free sulfhydryl (SH) content of BLG (DTNB). The settings on record: Bai/Chr 0 to 20.0 µM, BLG 20.0 µM. How it is done:
The content of free SH was determined by spectrophotometry according to the report by Takić et al. with minor modifications. Briefly, Bai/Chr concentrations were varied from 0 to 20.0 µM, and BLG was kept at 20.0 µM. Then the two solutions were incubated with 10.0 mM DTNB in 50 mM PBS (pH 6.8) for 30 min at room temperature. The absorbance of the sample at 412 nm was recorded and the molar extinction coefficient (14,360 M^−1 cm^−1) was obtained from the standard curve of L-cysteine, which was used to calculate the number of total sulfhydryl groups per gram of protein.

Setting [4] is: molar ratio of Bai/Chr to BLG 1:1.
[5] abbreviates: molar ratio of Bai/Chr to BLG 2:1.
[6] abbreviates: molar ratio of Bai/Chr to BLG 2:1, listed as Bai–BLG.
Where [7] appears, read: molar ratio of Bai/Chr to BLG 2:1, listed as Chr–BLG.

Each structure is given as a SMILES string. Values joined by “and” are separate entries in the source; they are usually repeats but may differ in a detail not shown here. Identical values can stand only once. Marks after values point to notes of the source that are not given here.

On to `O=c1cc(-c2ccccc2)oc2cc(O)c(O)c(O)c12` [Bai, baicalein], for which, on β-lactoglobulin (BLG) [1], the “fluorescence intensity of Peak 2 (3D fluorescence)” value turned out to be 206.8 and the “fluorescence intensity of Peak 1 (3D fluorescence)” value is reported as 395.4. Also, at β-lactoglobulin (BLG) [2] (setting [4]), the “Random Coil content of BLG” value is listed as 26.47 ± 0.41 ^b %, the “α-Helix content of BLG” value is reported as 14.12 ± 0.70 ^c %, the “β-Sheet content of BLG” value was 36.25 ± 0.25 ^b % and the “β-Turn content of BLG” value was 23.16 ± 0.12 ^a %. In addition, on β-lactoglobulin (BLG) [2] (setting [5]), the “Random Coil content of BLG” value was 25.26 ± 033 ^c % and the “β-Turn content of BLG” value is listed as 24.77 ± 0.54 ^b %. Besides, at β-lactoglobulin (BLG) [2] (setting [6]), the “α-Helix content of BLG” value was 15.85% and 15.85 ± 0.93 ^b %; the “β-Sheet content of BLG” value is 34.12% and 34.12 ± 0.34 ^d %. Also, the “effect on contents of free SH group of BLG” value on β-lactoglobulin (BLG) [3] is “gradually weakened”.
As to `O=c1cc(-c2ccccc2)oc2cc(O)cc(O)c12` [Chr, chrysin], on β-lactoglobulin (BLG) [1], the “fluorescence intensity of Peak 2 (3D fluorescence)” value stood at 205.3 and the “fluorescence intensity of Peak 1 (3D fluorescence)” value is recorded as 378.5. Moreover, at β-lactoglobulin (BLG) [2] (setting [4]), the “Random Coil content of BLG” value is 25.96 ± 0.34 ^bc %, the “α-Helix content of BLG” value was 14.30 ± 0.47 ^c %, the “β-Sheet content of BLG” value is recorded as 35.18 ± 0.12 ^c % and the “β-Turn content of BLG” value is 24.56 ± 0.48 ^a %. On β-lactoglobulin (BLG) [2] (setting [5]), the “Random Coil content of BLG” value is listed as 31.16 ± 0.10 ^a % and the “β-Turn content of BLG” value was 24.53 ± 0.93 ^a %. In addition, on β-lactoglobulin (BLG) [2] (setting [7]), the “α-Helix content of BLG” value was 11.25% and 11.25 ± 0.58 ^d %; the “β-Sheet content of BLG” value is 33.06% and 33.06 ± 0.30 ^e %. For the same molecule, the “effect on contents of free SH group of BLG” value at β-lactoglobulin (BLG) [3] is reported as “gradually weakened”.
